ChEMBL document CHEMBL1833895, “Synthesis and biological activity of desmethoxy analogues of coruscanone A” (Bioorg Med Chem Lett, 2011)

Columns and labels:
Nakaseomyces glabratus [1] = assay: Antifungal activity against Candida glabrata 20/I after 24 hrs by microdilution method; assay type: functional
Lichtheimia corymbifera [2] = assay: Antifungal activity against Absidia corymbifera 272 after 24 hrs by microdilution method; assay type: functional, organism-based; conditions: Lichtheimia corymbifera, 272, 24 h
Candida parapsilosis [3] = assay: Antifungal activity against Candida parapsilosis ATCC 22019 after 24 hrs by microdilution method; assay type: functional; conditions: Lodderomyces parapsilosis, ATCC 22019, 24 h
Aspergillus fumigatus [4] = assay: Antifungal activity against Aspergillus fumigatus 231 after 48 hrs by microdilution method; assay type: functional, organism-based; conditions: Aspergillus fumigatus, 231, 48 h
CCRF-CEM [5] = assay: Cytostatic activity against human CCRF-CEM cells after 72 hrs by XTT assay; assay type: ADME, cell-based
[6] = Cytostatic activity against human HeLaS3 cells after 48 hrs by XTT assay; assay type: ADME, cell-based; conditions: HeLa S3, 48 h
Clavispora lusitaniae [7] = assay: Antifungal activity against Candida lusitaniae 2446/I after 24 hrs by microdilution method; assay type: functional
Candida parapsilosis [8] = assay: Antifungal activity against Candida parapsilosis ATCC 22019 after 48 hrs by microdilution method; assay type: functional; conditions: Lodderomyces parapsilosis, ATCC 22019, 48 h
HT-29 = assay: Cytostatic activity against human HT-29 cells at 10 umol/L after 72 hrs by XTT assay; assay type: ADME, cell-based; conditions: ht-29, 72 h, 10 µM
Pichia kudriavzevii [9] = assay: Antifungal activity against Candida krusei E28 after 24 hrs by microdilution method; assay type: functional; conditions: E28, 24 h
[10] = Cytostatic activity against human COLO201 cells after 72 hrs by XTT assay; assay type: ADME, cell-based; conditions: COLO 201, 72 h
HL-60 [11] = assay: Cytostatic activity against human HL60 cells at 10 umol/L after 72 hrs by XTT assay; assay type: ADME, cell-based; conditions: hl-60, 72 h, 10 µM
Trichosporon asahii [12] = assay: Antifungal activity against Trichosporon asahii 1188 after 24 hrs by microdilution method; assay type: functional; conditions: Trichosporon asahii, 1188, 24 h
Clavispora lusitaniae [13] = assay: Antifungal activity against Candida lusitaniae 2446/I after 48 hrs by microdilution method; assay type: functional
Aspergillus fumigatus [14] = assay: Antifungal activity against Aspergillus fumigatus 231 after 24 hrs by microdilution method; assay type: functional, organism-based; conditions: Aspergillus fumigatus, 231, 24 h
Candida albicans [15] = assay: Antifungal activity against Candida albicans ATCC 44859 after 24 hrs by microdilution method; assay type: functional; conditions: ATCC 44859, 24 h
[16] = tested on: Trichophyton mentagrophytes; assay: Antifungal activity against Trichophyton mentagrophytes 445 after 120 hrs by microdilution method; assay type: functional, organism-based; conditions: Trichophyton mentagrophytes, 445, 120 h
Candida albicans [17] = assay: Antifungal activity against Candida albicans ATCC 90028 after 24 hrs by microdilution method; assay type: functional; conditions: ATCC 90028, 24 h
L1210 [18] = assay: Cytostatic activity against mouse L1210 cells at 10 umol/L after 72 hrs by XTT assay; assay type: ADME, cell-based; conditions: l1210, 72 h, 10 µM
Lichtheimia corymbifera [19] = assay: Antifungal activity against Absidia corymbifera 272 after 48 hrs by microdilution method; assay type: functional, organism-based; conditions: Lichtheimia corymbifera, 272, 48 h
Candida tropicalis [20] = assay: Antifungal activity against Candida tropicalis 156 after 48 hrs by microdilution method; assay type: functional; conditions: Candida tropicalis, 156, 48 h
Candida albicans [21] = assay: Antifungal activity against Candida albicans ATCC 44859 after 48 hrs by microdilution method; assay type: functional; conditions: ATCC 44859, 48 h
[22] = tested on: Trichophyton mentagrophytes; assay: Antifungal activity against Trichophyton mentagrophytes 445 after 72 hrs by microdilution method; assay type: functional, organism-based; conditions: Trichophyton mentagrophytes, 445, 72 h
Candida tropicalis [23] = assay: Antifungal activity against Candida tropicalis 156 after 24 hrs by microdilution method; assay type: functional; conditions: Candida tropicalis, 156, 24 h
Pichia kudriavzevii [24] = assay: Antifungal activity against Candida krusei E28 after 48 hrs by microdilution method; assay type: functional; conditions: E28, 48 h
Candida albicans [25] = assay: Antifungal activity against Candida albicans ATCC 90028 after 48 hrs by microdilution method; assay type: functional; conditions: ATCC 90028, 48 h
Trichosporon asahii [26] = assay: Antifungal activity against Trichosporon asahii 1188 after 48 hrs by microdilution method; assay type: functional; conditions: Trichosporon asahii, 1188, 48 h
Pichia kudriavzevii [27] = assay: Antifungal activity against Candida krusei ATCC 6258 after 48 hrs by microdilution method; assay type: functional; conditions: ATCC 6258, 48 h
Pichia kudriavzevii [28] = assay: Antifungal activity against Candida krusei ATCC 6258 after 24 hrs by microdilution method; assay type: functional; conditions: ATCC 6258, 24 h
Nakaseomyces glabratus [29] = assay: Antifungal activity against Candida glabrata 20/I after 48 hrs by microdilution method; assay type: functional
CCRF-CEM [30] = assay: Cytostatic activity against human CCRF-CEM cells at 10 umol/L after 72 hrs by XTT assay; assay type: ADME, cell-based; conditions: 10 µM
[31] = Cytostatic activity against human HeLaS3 cells at 10 umol/L after 48 hrs by XTT assay; assay type: ADME, cell-based; conditions: hela s3, 48 h, 10 µM
[32] = Cytostatic activity against human COLO201 cells at 10 umol/L after 72 hrs by XTT assay; assay type: ADME, cell-based; conditions: colo 201, 72 h, 10 µM
L1210 [33] = assay: Cytostatic activity against mouse L1210 cells after 72 hrs by XTT assay; assay type: ADME, cell-based; conditions: L1210, 72 h
HL-60 [34] = assay: Cytostatic activity against human HL60 cells after 72 hrs by XTT assay; assay type: ADME, cell-based; conditions: HL-60, 72 h

Row | Structure (SMILES) | IC50 [16] [µM] | IC80 (Nakaseomyces glabratus [1]) [µM] | IC80 (Lichtheimia corymbifera [2]) [µM] | IC80 (Candida parapsilosis [3]) [µM] | IC80 (Aspergillus fumigatus [4]) [µM] | IC80 (Clavispora lusitaniae [7]) [µM] | IC80 (Candida parapsilosis [8]) [µM] | Activity (HT-29) | IC80 (Pichia kudriavzevii [9]) [µM] | IC80 (Trichosporon asahii [12]) [µM] | IC80 (Aspergillus fumigatus [14]) [µM] | IC80 (Candida albicans [15]) [µM] | IC80 (Lichtheimia corymbifera [19]) [µM] | IC80 (Candida tropicalis [20]) [µM] | IC80 (Candida albicans [21]) [µM] | IC80 [22] [µM] | IC80 (Candida tropicalis [23]) [µM] | IC80 (Pichia kudriavzevii [24]) [µM] | IC80 (Trichosporon asahii [26]) [µM] | IC80 (Nakaseomyces glabratus [29]) [µM] | also measured
1 | O=C1C=CC(=O)C1=C/C=C/c1ccc(Cl)cc1 | 250 | 62.5 | > 250 | 62.5 | 125 | 62.5 | 62.5 | Non-toxic | 62.5 | 62.5 | 62.5 | 62.5 | > 250 | 62.5 | 62.5 | 62.5 | 62.5 | 62.5 | 125 | 62.5 | Activity (HL-60 [11]): Non-toxic; IC80 (Clavispora lusitaniae [13]): 62.5 µM; Activity (CCRF-CEM [30]): Non-toxic; IC80 (Candida albicans [17]): 62.5 µM; Activity [31]: Non-toxic; Activity (L1210 [18]): Non-toxic; IC80 (Candida albicans [25]): 62.5 µM; IC80 (Pichia kudriavzevii [27]): 62.5 µM; Activity [32]: Non-toxic; IC80 (Pichia kudriavzevii [28]): 62.5 µM
2 | Cc1ccc(/C=C/C=C2C(=O)C=CC2=O)cc1 | > 125 | 31.2 | > 125 | 7.81 | > 125 | 7.81 | 31.2 | Non-toxic | 7.81 | 31.2 | 62.5 | 3.9 | > 125 | 7.81 | 7.81 | 125 | 7.81 | 15.6 | > 125 | 31.2 | IC50 [6]: 7.3 µM; Activity (HL-60 [11]): Non-toxic; IC80 (Clavispora lusitaniae [13]): 15.6 µM; Activity (CCRF-CEM [30]): Non-toxic; IC80 (Candida albicans [17]): 7.81 µM; Activity (L1210 [18]): Non-toxic; IC80 (Candida albicans [25]): 7.81 µM; IC80 (Pichia kudriavzevii [27]): 15.6 µM; Activity [32]: Non-toxic; IC80 (Pichia kudriavzevii [28]): 7.81 µM
3 | O=C1C=CC(=O)C1=Cc1ccc(Br)cc1 | 15.6 | 15.6 | > 125 | 15.6 | 31.2 | 15.6 | 15.6 | Non-toxic | 15.6 | 15.6 | 31.2 | 7.81 | > 125 | 15.6 | 15.6 | 15.6 | 15.6 | 15.6 | 15.6 | 15.6 | IC50 (CCRF-CEM [5]): 1.8 µM; IC50 [6]: 4.9 µM; Activity (HL-60 [11]): Non-toxic; IC80 (Clavispora lusitaniae [13]): 15.6 µM; IC80 (Candida albicans [17]): 15.6 µM; Activity (L1210 [18]): Non-toxic; IC80 (Candida albicans [25]): 15.6 µM; IC80 (Pichia kudriavzevii [27]): 15.6 µM; Activity [32]: Non-toxic; IC80 (Pichia kudriavzevii [28]): 15.6 µM
4 | COc1ccc(/C=C/C=C2C(=O)C=CC2=O)cc1 | 500 | 250 | > 500 | 250 | 250 | 250 | 250 | Non-toxic | 250 | 250 | 250 | 125 | > 500 | 250 | 250 | 250 | 250 | 250 | 500 | 250 | Activity (HL-60 [11]): Non-toxic; IC80 (Clavispora lusitaniae [13]): 250 µM; Activity (CCRF-CEM [30]): Non-toxic; IC80 (Candida albicans [17]): 250 µM; Activity [31]: Non-toxic; Activity (L1210 [18]): Non-toxic; IC80 (Candida albicans [25]): 250 µM; IC80 (Pichia kudriavzevii [27]): 250 µM; Activity [32]: Non-toxic; IC80 (Pichia kudriavzevii [28]): 250 µM

More lines, main results first:

Row | IC50 [16] [µM] | Structure (SMILES) | IC80 (Nakaseomyces glabratus [1]) [µM] | IC80 (Lichtheimia corymbifera [2]) [µM] | IC80 (Candida parapsilosis [3]) [µM] | IC80 (Aspergillus fumigatus [4]) [µM] | IC80 (Clavispora lusitaniae [7]) [µM] | IC80 (Candida parapsilosis [8]) [µM] | Activity (HT-29) | IC80 (Pichia kudriavzevii [9]) [µM] | IC80 (Trichosporon asahii [12]) [µM] | IC80 (Aspergillus fumigatus [14]) [µM] | IC80 (Candida albicans [15]) [µM] | IC80 (Lichtheimia corymbifera [19]) [µM] | IC80 (Candida tropicalis [20]) [µM] | IC80 (Candida albicans [21]) [µM] | IC80 [22] [µM] | IC80 (Candida tropicalis [23]) [µM] | IC80 (Pichia kudriavzevii [24]) [µM] | IC80 (Trichosporon asahii [26]) [µM] | IC80 (Nakaseomyces glabratus [29]) [µM] | also measured
5 | 15.6 | O=C1C=CC(=O)C1=Cc1ccc2ccccc2c1 | 31.2 | 125 | 15.6 | 31.2 | 15.6 | 15.6 | Non-toxic | 31.2 | 15.6 | 15.6 | 15.6 | > 125 | 31.2 | 15.6 | 7.81 | 31.2 | 31.2 | 62.5 | 31.2 | IC50 (CCRF-CEM [5]): 3.7 µM; IC50 [6]: 13.5 µM; IC50 [10]: 2.4 µM; Activity (HL-60 [11]): Non-toxic; IC80 (Clavispora lusitaniae [13]): 15.6 µM; IC80 (Candida albicans [17]): 15.6 µM; Activity (L1210 [18]): Non-toxic; IC80 (Candida albicans [25]): 15.6 µM; IC80 (Pichia kudriavzevii [27]): 31.2 µM; IC80 (Pichia kudriavzevii [28]): 15.6 µM
6 | 0.98 | CN(C)c1ccc(C=C2C(=O)C=CC2=O)cc1 | 62.5 | > 125 | 3.9 | 31.2 | 7.81 | 7.81 | Non-toxic | 7.81 | 7.81 | 15.6 | 31.2 | > 125 | > 125 | 31.2 | 0.98 | 62.5 | 7.81 | 15.6 | > 125 | IC50 (CCRF-CEM [5]): 4.3 µM; IC50 [10]: 1.3 µM; Activity (HL-60 [11]): Non-toxic; IC80 (Clavispora lusitaniae [13]): 31.2 µM; IC80 (Candida albicans [17]): 31.2 µM; Activity [31]: Non-toxic; Activity (L1210 [18]): Non-toxic; IC80 (Candida albicans [25]): 62.5 µM; IC80 (Pichia kudriavzevii [27]): 7.81 µM; IC80 (Pichia kudriavzevii [28]): 7.81 µM
7 | 7.81 | COC(/C=C/c1ccccc1)=C1\C(=O)C=C(C)C1=O [CORUSCANONE A] | 125 | 31.2 | – | 250 | – | – | – | 125 | 0.98 | 31.2 | 0.98 | 250 | 7.1 | 3.91 | 3.91 | 3.91 | 250 | 7.81 | 125 | IC50 (CCRF-CEM [5]): 3.6 µM; IC50 (L1210 [33]): 3.8 µM; IC50 (HL-60 [34]): 4.5 µM
8 | 7.81 | O=C1C=CC(=O)C1=Cc1ccco1 | 15.6 | 250 | 15.6 | 31.2 | 15.6 | 15.6 | Non-toxic | 15.6 | 15.6 | 15.6 | 7.81 | > 500 | 15.6 | 15.6 | 7.81 | 15.6 | 15.6 | 31.2 | 15.6 | IC50 (CCRF-CEM [5]): 2.5 µM; IC50 [6]: 7.3 µM; Activity (HL-60 [11]): Non-toxic; IC80 (Clavispora lusitaniae [13]): 15.6 µM; IC80 (Candida albicans [17]): 15.6 µM; Activity (L1210 [18]): Non-toxic; IC80 (Candida albicans [25]): 15.6 µM; IC80 (Pichia kudriavzevii [27]): 15.6 µM; Activity [32]: Non-toxic; IC80 (Pichia kudriavzevii [28]): 7.81 µM
